The subject of assay [1] is Human foreskin keratinocytes. The experiment in a line: Keratinocyte proliferation analysis (DNA content per well, Pico Green). In kind it is cell-based. The note with it: for DNA: 4 days, control (0 μM) 3.5. Here is the method: Human foreskin keratinocytes (passage 3) were seeded at 4000 cells/well in 96 well plates in Keratinocyte Growth Medium (abbreviated to KGM) containing 0.03 mM calcium and grown for 3 days at 37° C. The cells were then treated with PPAR ligands in KGM containing 0.03 mM calcium for 4 days prior to harvest. Stock solutions of PPAR ligands were dissolved in dimethylsulphoxide (DMSO) and diluted in KGM before adding to the cells. […] The harvested cells were washed 3× in phosphate buffered saline (PBS) and extracted in 1% Triton X100, 50 mM (tris[hydroxymethyl]aminomethane) (Tris) pH 8.0 plus protease inhibitors pepstatin and leupeptin (100 μl/well). The extract was assayed for DNA content using the Pico Green DNA assay (Molecular Probes, Inc.).
Cultured keratinocytes were treated with cis-9-trans-11 conjugated linoleic acid (CT-CLA) for 4 days. The cells were extracted with Tris-1% Triton X100 and the DNA content per well was determine by the Pico Green assay in accordance with the above described procedure.

For a further assay, the system named is interleukin-6 (IL-6). The assay is described as follows: Skin organotypic culture analysis: AP-induced IL-6 release into the medium. The note with it: for IL-6 release (mean ± SD): 24 h, Nil 21.5, AP 57.1. In kind it is cell-based. Here is the method:
The cultures were then incubated at 37° C., 5% CO2, and 95% relative humidity (standard cell culture conditions) for 24 h. The culture medium was assayed for the pro-inflammatory cytokine interleukin-6 (IL-6) and after washing to remove the AP formulation, the viability of the culture was determined using the Thiazoyl blue (MTT) assay (Mosmann, T. J. Immunol. Methods 65, p55 (1983). IL-6 was determined using an Immunoassay (Quantikine, R&D systems).
In this Example, skin organotypic cultures (Epiderm™, MatTek, USA) were treated topically with the above-identified AP formulation and the trans-10-cis-12 conjugated linoleic acid (TC CLA) was introduced into the medium. The cultures were then incubated at 37° C., 5% CO2, and 95% relative humidity (standard cell culture conditions) for 24 h. The culture medium was assayed for the pro-inflammatory cytokine interleukin-6 (IL-6) and after washing to remove the AP formulation, the viability of the culture was determined by the method described in Example 2.
The cultures were then incubated at 37° C., 5% CO2, and 95% relative humidity (standard cell culture conditions) for 24 hours. The culture medium was assayed for the pro-inflammatory cytokine interleukin-6 (IL-6) and after washing to remove the AP formulation, the viability of the culture was determined using the MTT assay. IL-6 was determined using an ELISA assay (R&D systems).

In the case of `CC\C=C/C=C/C=C/C=C\CCCCCCCC(=O)O` [cis parinaric acid, cis-parinaric acid], the “keratinocyte DNA synthesis activity, statement” value in assay [1] (Example 12: 10 and 20 μM, 1 way ANOVA, p<0.05) is reported as “significantly reduce”. Further, the DNA was 3.3 ng/well in assay [1] (Table 13: 1 μM), 4.1 ng/well in assay [1] (Table 13: 5 μM), 2.6 ng/well in assay [1] (Table 13: 10 μM) and 1.5 ng/well in assay [1] (Table 13: 20 μM). Besides, the “AP-induced IL-6 release” value with interleukin-6 (IL-6) (1-100 μM, Dunnet's test p<0.05) was “significantly decrease”. Further, the “IL-6 release (mean ± SD)” value in the assay with interleukin-6 (IL-6) (Table 14: 1.0 μM (+ AP)) worked out at 26.8; in the assay on interleukin-6 (IL-6) (Table 14: 10.0 μM (+ AP)), 23.3; in the assay on interleukin-6 (IL-6) (Table 14: 100.0 μM (+ AP)) it was 25.7.

Values taken from patent US6713051B2, “Antiperspirant or deodorant compositions” (Unilever Home & Personal Care USA division of Conopco, Inc., priority 2001, dated 2004).
